How the values were obtained:
Parameters in all cases: scale not given: the % may be the effect or the level left
[1] = target: Interleukin-1 receptor-associated kinase 3 (Homo sapiens) (UniProt Q9Y616); assay: Inhibition of DNA-tagged human IRAK3 assessed as percent of control at 50000 nM by qPCR analysis relative to control
[2] = target: Homeodomain-interacting protein kinase 4 (Homo sapiens) (UniProt Q8NE63); assay: Inhibition of DNA-tagged human HIPK4 assessed as percent of control at 50000 nM by qPCR analysis relative to control
[3] = target: Homeodomain-interacting protein kinase 2 (Homo sapiens) (UniProt Q9H2X6); assay: Inhibition of DNA-tagged human HIPK2 assessed as percent of control at 50000 nM by qPCR analysis relative to control
[4] = target: Glycogen synthase kinase-3 alpha (Homo sapiens) (UniProt P49840); assay: Inhibition of DNA-tagged human GSK3A assessed as percent of control at 50000 nM by qPCR analysis relative to control
[5] = target: Ephrin type-B receptor 4 (Homo sapiens) (UniProt P54760); assay: Inhibition of DNA-tagged human EPHB4 assessed as percent of control at 50000 nM by qPCR analysis relative to control
[6] = target: Ephrin type-B receptor 3 (Homo sapiens) (UniProt P54753); assay: Inhibition of DNA-tagged human EPHB3 assessed as percent of control at 50000 nM by qPCR analysis relative to control
[7] = target: Ephrin type-A receptor 5 (Homo sapiens) (UniProt P54756); assay: Inhibition of DNA-tagged human EPHA5 assessed as percent of control at 50000 nM by qPCR analysis relative to control
[8] = target: Casein kinase I isoform gamma-3 (Homo sapiens) (UniProt Q9Y6M4); assay: Inhibition of DNA-tagged human CSNK1G3 assessed as percent of control at 50000 nM by qPCR analysis relative to control
[9] = target: Casein kinase I isoform gamma-1 (Homo sapiens) (UniProt Q9HCP0); assay: Inhibition of DNA-tagged human CSNK1G1 assessed as percent of control at 50000 nM by qPCR analysis relative to control
[10] = target: Casein kinase I isoform alpha-like (Homo sapiens) (UniProt Q8N752); assay: Inhibition of DNA-tagged human CSNK1A1L assessed as percent of control at 50000 nM by qPCR analysis relative to control
[11] = target: Macrophage colony-stimulating factor 1 receptor (Homo sapiens) (UniProt P07333); assay: Inhibition of DNA-tagged human CSF1R assessed as percent of control at 50000 nM by qPCR analysis relative to control
[12] = target: Serine/threonine-protein kinase Chk2 (Homo sapiens) (UniProt O96017); assay: Inhibition of DNA-tagged human CHEK2 assessed as percent of control at 50000 nM by qPCR analysis relative to control
[13] = target: Calcium/calmodulin-dependent protein kinase type II subunit gamma (Homo sapiens) (UniProt Q13555); assay: Inhibition of DNA-tagged human CAMK2G assessed as percent of control at 50000 nM by qPCR analysis relative to control
[14] = target: Tyrosine-protein kinase ABL1 (Homo sapiens) (UniProt P00519); assay: Inhibition of DNA-tagged non-phosphorylated human ABL1 assessed as percent of control at 50000 nM by qPCR analysis relative to control
[15] = target: Leukocyte tyrosine kinase receptor (Homo sapiens) (UniProt P29376); assay: Inhibition of DNA-tagged human LTK assessed as percent of control at 50000 nM by qPCR analysis relative to control
[16] = target: MAP/microtubule affinity-regulating kinase 4 (Homo sapiens) (UniProt Q96L34); assay: Inhibition of DNA-tagged human MARK4 assessed as percent of control at 50000 nM by qPCR analysis relative to control
[17] = tested on: Hepatocyte growth factor receptor (Homo sapiens), P08581 [Y1235D]; assay: Inhibition of DNA-tagged human MET Y1235D mutant assessed as percent of control at 50000 nM by qPCR analysis relative to control
[18] = target: Serine/threonine-protein kinase mTOR (Homo sapiens) (UniProt P42345); assay: Inhibition of DNA-tagged human MTOR assessed as percent of control at 50000 nM by qPCR analysis relative to control
[19] = target: Serine/threonine-protein kinase Nek2 (Homo sapiens) (UniProt P51955); assay: Inhibition of DNA-tagged human NEK2 assessed as percent of control at 50000 nM by qPCR analysis relative to control
[20] = target: Cyclin-dependent kinase 18 (Homo sapiens) (UniProt Q07002); assay: Inhibition of DNA-tagged human PCTK3 assessed as percent of control at 50000 nM by qPCR analysis relative to control
[21] = target: Serine/threonine-protein kinase PLK4 (Homo sapiens) (UniProt O00444); assay: Inhibition of DNA-tagged human PLK4 assessed as percent of control at 50000 nM by qPCR analysis relative to control
[22] = target: Protein kinase C iota type (Homo sapiens) (UniProt P41743); assay: Inhibition of DNA-tagged human PRKCI assessed as percent of control at 50000 nM by qPCR analysis relative to control
[23] = target: Receptor-interacting serine/threonine-protein kinase 2 (Homo sapiens) (UniProt O43353); assay: Inhibition of DNA-tagged human RIPK2 assessed as percent of control at 50000 nM by qPCR analysis relative to control
[24] = target: Ribosomal protein S6 kinase alpha-5 (Homo sapiens) (UniProt O75582); assay: Inhibition of DNA-tagged human N-terminal RPS6KA5 kinase domain 1 assessed as percent of control at 50000 nM by qPCR analysis relative to control
[25] = target: Serine/threonine-protein kinase SIK2 (Homo sapiens) (UniProt Q9H0K1); assay: Inhibition of DNA-tagged human SIK2 assessed as percent of control at 50000 nM by qPCR analysis relative to control
[26] = target: SNF-related serine/threonine-protein kinase (Homo sapiens) (UniProt Q9NRH2); assay: Inhibition of DNA-tagged human SNRK assessed as percent of control at 50000 nM by qPCR analysis relative to control
[27] = target: SRSF protein kinase 3 (Homo sapiens) (UniProt Q9UPE1); assay: Inhibition of DNA-tagged human SRPK3 assessed as percent of control at 50000 nM by qPCR analysis relative to control
[28] = target: Serine/threonine-protein kinase TAO2 (Homo sapiens) (UniProt Q9UL54); assay: Inhibition of DNA-tagged human TAOK2 assessed as percent of control at 50000 nM by qPCR analysis relative to control
[29] = target: Serine/threonine-protein kinase TBK1 (Homo sapiens) (UniProt Q9UHD2); assay: Inhibition of DNA-tagged human TBK1 assessed as percent of control at 50000 nM by qPCR analysis relative to control
[30] = target: Tyrosine-protein kinase TXK (Homo sapiens) (UniProt P42681); assay: Inhibition of DNA-tagged human TXK assessed as percent of control at 50000 nM by qPCR analysis relative to control

Sequence of Serine/threonine-protein kinase TBK1 (Homo sapiens) (Q9UHD2 whole entry): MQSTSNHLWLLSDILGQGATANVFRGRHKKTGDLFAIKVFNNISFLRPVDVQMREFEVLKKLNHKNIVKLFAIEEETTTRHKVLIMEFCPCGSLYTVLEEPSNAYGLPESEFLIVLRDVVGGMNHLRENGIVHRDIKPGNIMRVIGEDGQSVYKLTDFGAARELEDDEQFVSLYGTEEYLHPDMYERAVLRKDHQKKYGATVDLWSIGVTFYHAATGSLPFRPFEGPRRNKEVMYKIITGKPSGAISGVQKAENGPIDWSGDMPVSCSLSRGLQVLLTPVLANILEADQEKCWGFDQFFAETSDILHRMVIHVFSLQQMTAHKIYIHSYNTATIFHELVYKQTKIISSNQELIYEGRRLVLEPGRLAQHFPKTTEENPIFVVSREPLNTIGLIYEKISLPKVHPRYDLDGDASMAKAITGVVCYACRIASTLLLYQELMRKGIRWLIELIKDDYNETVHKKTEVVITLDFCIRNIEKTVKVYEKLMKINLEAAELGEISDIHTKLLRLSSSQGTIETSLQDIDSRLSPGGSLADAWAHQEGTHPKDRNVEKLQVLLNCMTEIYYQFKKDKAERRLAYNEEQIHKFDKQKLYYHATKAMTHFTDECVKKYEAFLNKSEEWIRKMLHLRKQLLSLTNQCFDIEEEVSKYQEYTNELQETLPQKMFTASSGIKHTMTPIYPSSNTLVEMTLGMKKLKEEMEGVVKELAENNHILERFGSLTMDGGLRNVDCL
Sequence of Homeodomain-interacting protein kinase 2 (Homo sapiens) (Q9H2X6 whole entry, looked up): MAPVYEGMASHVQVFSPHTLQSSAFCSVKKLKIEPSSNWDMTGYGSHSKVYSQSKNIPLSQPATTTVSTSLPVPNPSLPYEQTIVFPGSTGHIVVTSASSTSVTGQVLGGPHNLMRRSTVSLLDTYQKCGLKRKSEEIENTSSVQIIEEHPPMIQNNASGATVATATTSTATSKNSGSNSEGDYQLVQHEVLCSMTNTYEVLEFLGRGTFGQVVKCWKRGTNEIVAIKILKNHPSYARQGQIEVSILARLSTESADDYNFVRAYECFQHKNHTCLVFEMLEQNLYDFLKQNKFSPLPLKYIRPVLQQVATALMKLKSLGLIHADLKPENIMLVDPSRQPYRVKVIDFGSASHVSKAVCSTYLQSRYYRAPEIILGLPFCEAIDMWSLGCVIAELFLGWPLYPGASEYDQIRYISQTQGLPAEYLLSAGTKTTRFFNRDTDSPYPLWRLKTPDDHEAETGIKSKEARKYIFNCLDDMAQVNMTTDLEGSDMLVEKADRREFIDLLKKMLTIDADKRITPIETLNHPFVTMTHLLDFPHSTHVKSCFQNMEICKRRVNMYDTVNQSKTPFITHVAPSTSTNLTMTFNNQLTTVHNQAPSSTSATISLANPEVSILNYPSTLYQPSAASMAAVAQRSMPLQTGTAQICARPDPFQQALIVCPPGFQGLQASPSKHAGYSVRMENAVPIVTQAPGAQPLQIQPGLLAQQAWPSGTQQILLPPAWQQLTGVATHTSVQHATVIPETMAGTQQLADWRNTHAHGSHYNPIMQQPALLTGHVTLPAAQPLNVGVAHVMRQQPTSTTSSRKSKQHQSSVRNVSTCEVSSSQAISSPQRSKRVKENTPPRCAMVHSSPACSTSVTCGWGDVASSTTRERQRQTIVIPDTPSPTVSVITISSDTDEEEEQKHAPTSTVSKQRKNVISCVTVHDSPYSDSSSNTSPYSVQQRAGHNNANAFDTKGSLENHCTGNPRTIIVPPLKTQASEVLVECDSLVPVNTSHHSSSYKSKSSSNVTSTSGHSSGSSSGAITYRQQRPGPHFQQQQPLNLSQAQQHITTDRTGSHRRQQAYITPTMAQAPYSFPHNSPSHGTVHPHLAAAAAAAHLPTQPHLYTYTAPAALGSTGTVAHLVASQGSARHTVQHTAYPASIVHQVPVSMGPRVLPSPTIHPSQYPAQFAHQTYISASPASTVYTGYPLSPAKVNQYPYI
Sequence of Tyrosine-protein kinase ABL1 (Homo sapiens) (P00519 whole entry): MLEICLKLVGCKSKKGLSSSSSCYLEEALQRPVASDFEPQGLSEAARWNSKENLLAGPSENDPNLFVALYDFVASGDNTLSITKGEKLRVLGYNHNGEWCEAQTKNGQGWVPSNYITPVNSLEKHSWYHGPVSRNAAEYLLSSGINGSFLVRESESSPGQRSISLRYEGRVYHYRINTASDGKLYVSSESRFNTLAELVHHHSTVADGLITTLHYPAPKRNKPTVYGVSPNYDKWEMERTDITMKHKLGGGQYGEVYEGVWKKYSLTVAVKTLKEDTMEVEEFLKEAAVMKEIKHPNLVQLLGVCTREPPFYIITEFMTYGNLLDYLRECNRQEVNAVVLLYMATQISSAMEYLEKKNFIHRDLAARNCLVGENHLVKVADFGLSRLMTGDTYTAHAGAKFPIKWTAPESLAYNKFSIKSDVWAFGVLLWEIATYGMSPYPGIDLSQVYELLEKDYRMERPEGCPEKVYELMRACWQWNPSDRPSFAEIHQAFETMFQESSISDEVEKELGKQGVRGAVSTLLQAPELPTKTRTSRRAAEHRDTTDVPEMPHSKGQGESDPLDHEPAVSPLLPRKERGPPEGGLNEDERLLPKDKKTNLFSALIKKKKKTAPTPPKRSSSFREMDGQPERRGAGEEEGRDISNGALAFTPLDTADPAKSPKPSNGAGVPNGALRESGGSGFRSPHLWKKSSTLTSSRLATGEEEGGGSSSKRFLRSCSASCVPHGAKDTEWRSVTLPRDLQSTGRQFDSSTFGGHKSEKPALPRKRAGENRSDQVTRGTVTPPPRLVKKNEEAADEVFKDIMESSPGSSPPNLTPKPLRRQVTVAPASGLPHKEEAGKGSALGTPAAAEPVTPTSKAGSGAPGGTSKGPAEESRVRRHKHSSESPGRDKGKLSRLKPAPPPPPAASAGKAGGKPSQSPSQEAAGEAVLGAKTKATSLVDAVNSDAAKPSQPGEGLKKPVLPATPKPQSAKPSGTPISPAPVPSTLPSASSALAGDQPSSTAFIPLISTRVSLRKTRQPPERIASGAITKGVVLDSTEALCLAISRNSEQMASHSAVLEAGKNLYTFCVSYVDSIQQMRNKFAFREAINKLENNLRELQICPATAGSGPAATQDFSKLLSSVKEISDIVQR
Sequence of Ephrin type-B receptor 3 (Homo sapiens) (P54753 whole entry): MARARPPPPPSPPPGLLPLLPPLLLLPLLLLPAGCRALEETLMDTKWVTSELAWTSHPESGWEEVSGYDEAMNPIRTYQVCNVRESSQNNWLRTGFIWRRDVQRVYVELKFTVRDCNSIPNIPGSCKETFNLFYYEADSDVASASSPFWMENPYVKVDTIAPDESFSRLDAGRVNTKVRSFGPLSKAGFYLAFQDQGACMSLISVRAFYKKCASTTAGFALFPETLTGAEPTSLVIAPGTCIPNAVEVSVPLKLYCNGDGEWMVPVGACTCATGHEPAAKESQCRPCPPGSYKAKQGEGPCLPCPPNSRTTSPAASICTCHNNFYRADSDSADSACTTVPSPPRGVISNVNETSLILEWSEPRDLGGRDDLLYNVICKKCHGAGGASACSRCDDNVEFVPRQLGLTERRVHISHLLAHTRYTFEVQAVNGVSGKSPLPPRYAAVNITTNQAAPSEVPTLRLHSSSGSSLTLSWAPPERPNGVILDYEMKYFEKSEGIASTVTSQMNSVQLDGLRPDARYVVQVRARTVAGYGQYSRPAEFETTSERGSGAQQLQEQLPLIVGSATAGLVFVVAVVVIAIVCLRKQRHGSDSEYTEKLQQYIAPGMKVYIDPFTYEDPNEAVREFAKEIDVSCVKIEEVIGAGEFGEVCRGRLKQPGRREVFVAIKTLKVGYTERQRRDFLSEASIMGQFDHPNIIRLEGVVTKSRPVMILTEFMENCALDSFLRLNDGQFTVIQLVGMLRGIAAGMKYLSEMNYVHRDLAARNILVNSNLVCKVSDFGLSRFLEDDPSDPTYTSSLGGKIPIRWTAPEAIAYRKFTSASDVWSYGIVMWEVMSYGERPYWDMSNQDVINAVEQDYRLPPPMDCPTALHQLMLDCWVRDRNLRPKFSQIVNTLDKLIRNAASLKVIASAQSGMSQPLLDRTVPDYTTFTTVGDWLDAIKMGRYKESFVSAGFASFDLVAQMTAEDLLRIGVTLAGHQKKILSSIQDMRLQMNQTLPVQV
Sequence of Homeodomain-interacting protein kinase 4 (Homo sapiens) (Q8NE63 whole entry): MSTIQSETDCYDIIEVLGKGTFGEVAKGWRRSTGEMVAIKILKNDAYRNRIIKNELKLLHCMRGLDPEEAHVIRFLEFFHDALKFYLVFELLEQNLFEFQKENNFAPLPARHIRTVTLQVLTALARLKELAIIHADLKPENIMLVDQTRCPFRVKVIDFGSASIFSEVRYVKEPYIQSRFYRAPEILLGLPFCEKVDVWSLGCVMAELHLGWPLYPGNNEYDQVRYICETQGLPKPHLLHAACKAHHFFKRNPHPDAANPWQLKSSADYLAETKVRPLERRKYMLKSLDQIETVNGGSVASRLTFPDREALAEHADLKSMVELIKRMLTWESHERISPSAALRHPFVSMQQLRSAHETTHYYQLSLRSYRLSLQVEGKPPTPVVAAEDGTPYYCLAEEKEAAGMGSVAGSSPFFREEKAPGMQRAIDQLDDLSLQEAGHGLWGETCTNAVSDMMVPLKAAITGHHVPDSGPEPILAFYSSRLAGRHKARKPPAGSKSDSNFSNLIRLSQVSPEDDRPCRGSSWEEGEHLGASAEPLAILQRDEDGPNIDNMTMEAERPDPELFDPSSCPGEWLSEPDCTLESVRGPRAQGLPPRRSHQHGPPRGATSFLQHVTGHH
Sequence of Casein kinase I isoform alpha-like (Homo sapiens) (Q8N752 whole entry, canonical isoform): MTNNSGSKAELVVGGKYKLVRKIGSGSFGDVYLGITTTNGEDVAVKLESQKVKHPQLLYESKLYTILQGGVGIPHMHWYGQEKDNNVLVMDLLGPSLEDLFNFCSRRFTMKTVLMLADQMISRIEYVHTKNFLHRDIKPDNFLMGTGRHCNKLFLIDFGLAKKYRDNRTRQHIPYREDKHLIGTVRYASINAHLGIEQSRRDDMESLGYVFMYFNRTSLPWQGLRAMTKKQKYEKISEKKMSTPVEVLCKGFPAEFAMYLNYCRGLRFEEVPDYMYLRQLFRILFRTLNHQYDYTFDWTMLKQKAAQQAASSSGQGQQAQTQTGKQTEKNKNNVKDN

SMILES: CN1C(=O)/C(=C2/C(=O)Nc3ccccc32)c2ccccc21
- Activity [1]: 90%
- Activity [2]: 100%
- Activity [3]: 66%
- Activity [4]: 85%
- Activity [5]: 98%
- Activity [6]: 90%
- Activity [7]: 96%
- Activity [8]: 90%
- Activity [9]: 95%
- Activity [10]: 97%
- Activity [11]: 98%
- Activity [12]: 100%
- Activity [13]: 90%
- Activity [14]: 100%
- Activity [15]: 92%
- Activity [16]: 77%
- Activity [17]: 99%
- Activity [18]: 100%
- Activity [19]: 100%
- Activity [20]: 84%
- Activity [21]: 79%
- Activity [22]: 100%
- Activity [23]: 100%
- Activity [24]: 100%
- Activity [25]: 95%
- Activity [26]: 81%
- Activity [27]: 100%
- Activity [28]: 84%
- Activity [29]: 50%
- Activity [30]: 100%
